Reference: patent US20250255867A1 (Kadmon Corporation, LLC, priority 2022, published 2025)

Test system: patients with cGVHD
Assay: Example 1: pulmonary function (percent predicted FEV1, FVC, DLco, TLC, RV) change from baseline
Assay type: in vivo, human
Method: Change From Baseline in Percent Predicted Forced Expiratory Volume in 1 Second (FEV1) at Each Specified Time Points. FEV1 was the volume of air exhaled from the lungs in the first second of a forced expiration as measured by spirometer. Baseline value was defined as valid and last non-missing value obtained within 28 days prior to participant receiving first study medication. EOT visit was performed within 3 days after the participant's last dose of study drug. […] Analysis was performed on mITT population. Here, ‘number analyzed’=participants with available data for each specified category. Here, ‘0’ in the number analyzed field signifies that none of the participants were available for the analysis at the specified time points.
Change From Baseline in Percent Predicted Forced Vital Capacity (FVC) at Each Specified Time Points. FVC was the total amount of air (in liters) exhaled from the lungs during the lung function test measured by spirometer which assessed the change in lung function related to the disease status. Baseline value was defined as valid and last non-missing value obtained within 28 days prior to participant receiving first study medication. EOT visit was performed within 3 days after the participant's last dose of study drug. […] Analysis was performed on mITT population. Here, ‘number analyzed’=participants with available data for each specified category. Here, ‘0’ in the number analyzed field signifies that none of the participants were available for the analysis at the specified time points.
Change From Baseline in Percent Predicted Hemoglobin (HGB) Corrected Diffusing Capacity of Lung for Carbon Monoxide (DLco) at Each Specified Time Points. DLco is a measurement of the ability of the lungs to transfer gases from the air to the blood. Change from baseline in diffusing capacity of the lung for carbon monoxide (percent predicted hemoglobin level corrected) was reported for this measure. Baseline value was defined as valid and last non-missing value obtained within 28 days prior to participant receiving first study medication. EOT visit was performed within 3 days after the participant's last dose of study drug. […] Analysis was performed on mITT population. Here, ‘number analyzed’=participants with available data for each specified category. Here, ‘0’ in the number analyzed field signifies that none of the participants were available for the analysis at the specified time points.
Change From Baseline in Percent Predicted Total Lung Capacity (TLC) at Each Specified Time Points. TLC is the volume of air in the lungs upon the maximum effort of inspiration. Baseline value was defined as valid and last non-missing value obtained within 28 days prior to participant receiving first study medication. EOT visit was performed within 3 days after the participant's last dose of study drug. […] Analysis was performed on mITT population. Here, ‘number analyzed’=participants with available data for each specified category.

CC(C)NC(=O)COc1cccc(-c2nc(Nc3ccc4[nH]ncc4c3)c3ccccc3n2)c1 [Belumosudil, 2-{3-[4-(1H-indazol-5-ylamino)-2-quinazolinyl]phenoxy}-N-(propan-2-yl) acetamide]
Change From Baseline in Percent Predicted Residual Volume (RV), Mean (Standard Deviation) (Cohort 2: 200 mg BID, Cycle 13, Day 1, n=4): −27.0 (35.6) percent predicted RV
Change From Baseline in Percent Predicted Residual Volume (RV), Mean (Standard Deviation) (Cohort 2: 200 mg BID, Cycle 14, Day 1, n=1): −31.0 (—) percent predicted RV
Change From Baseline in Percent Predicted Residual Volume (RV), Mean (Standard Deviation) (Cohort 2: 200 mg BID, Cycle 15, Day 1, n=3): −0.7 (18.1) percent predicted RV
Change From Baseline in Percent Predicted Residual Volume (RV), Mean (Standard Deviation) (Cohort 2: 200 mg BID, Cycle 16, Day 1, n=2): −36.5 (13.4) percent predicted RV
Change From Baseline in Percent Predicted Residual Volume (RV), Mean (Standard Deviation) (Cohort 2: 200 mg BID, Cycle 17, Day 1, n=3): −47.3 (25.1) percent predicted RV
Change From Baseline in Percent Predicted Residual Volume (RV), Mean (Standard Deviation) (Cohort 2: 200 mg BID, Cycle 18, Day 1, n=2): −42.0 (0.0) percent predicted RV
Change From Baseline in Percent Predicted Residual Volume (RV), Mean (Standard Deviation) (Cohort 2: 200 mg BID, Cycle 19, Day 1, n=3): −19.7 (18.0) percent predicted RV
Change From Baseline in Percent Predicted Residual Volume (RV), Mean (Standard Deviation) (Cohort 2: 200 mg BID, Cycle 20, Day 1, n=2): −7.5 (37.5) percent predicted RV
Change From Baseline in Percent Predicted Residual Volume (RV), Mean (Standard Deviation) (Cohort 2: 200 mg BID, Cycle 21, Day 1, n=1): −44.0 (—) percent predicted RV
Change From Baseline in Percent Predicted Residual Volume (RV), Mean (Standard Deviation) (Cohort 2: 200 mg BID, Cycle 22, Day 1, n=2): −33.0 (19.8) percent predicted RV
Change From Baseline in Percent Predicted Residual Volume (RV), Mean (Standard Deviation) (Cohort 2: 200 mg BID, Cycle 23, Day 1, n=1): −72.0 (—) percent predicted RV
Change From Baseline in Percent Predicted Residual Volume (RV), Mean (Standard Deviation) (Cohort 2: 200 mg BID, Cycle 24, Day 1, n=1): −17.0 (—) percent predicted RV
Change From Baseline in Percent Predicted Residual Volume (RV), Mean (Standard Deviation) (Cohort 2: 200 mg BID, Cycle 25, Day 1, n=2): −34.0 (31.1) percent predicted RV
Change From Baseline in Percent Predicted Residual Volume (RV), Mean (Standard Deviation) (Cohort 2: 200 mg BID, Cycle 27, Day 1, n=2): −39.5 (20.5) percent predicted RV
Change From Baseline in Percent Predicted Residual Volume (RV), Mean (Standard Deviation) (Cohort 2: 200 mg BID, Cycle 29, Day 1, n=1): −13.0 (—) percent predicted RV
Change From Baseline in Percent Predicted Residual Volume (RV), Mean (Standard Deviation) (Cohort 2: 200 mg BID, Cycle 37, Day 1, n=1): −70.0 (—) percent predicted RV
Change From Baseline in Percent Predicted Residual Volume (RV), Mean (Standard Deviation) (Cohort 2: 200 mg BID, Cycle 39, Day 1, n=2): −43.0 (42.4) percent predicted RV
Change From Baseline in Percent Predicted Residual Volume (RV), Mean (Standard Deviation) (Cohort 2: 200 mg BID, Cycle 43, Day 1, n=1): −26.0 (—) percent predicted RV
Change From Baseline in Percent Predicted Residual Volume (RV), Mean (Standard Deviation) (Cohort 2: 200 mg BID, EOT, n=8): 10.6 (34.9) percent predicted RV
Change From Baseline in Percent Predicted Residual Volume (RV), Mean (Standard Deviation) (Cohort 3: 400 mg QD, Cycle 2, Day 1, n=4): −18.0 (30.1) percent predicted RV
Change From Baseline in Percent Predicted Residual Volume (RV), Mean (Standard Deviation) (Cohort 3: 400 mg QD, Cycle 3, Day 1, n=12): 9.0 (34.4) percent predicted RV
Change From Baseline in Percent Predicted Residual Volume (RV), Mean (Standard Deviation) (Cohort 3: 400 mg QD, Cycle 4, Day 1, n=6): 17.8 (29.0) percent predicted RV
Change From Baseline in Percent Predicted Residual Volume (RV), Mean (Standard Deviation) (Cohort 3: 400 mg QD, Cycle 5, Day 1, n=10): −3.7 (29.8) percent predicted RV
Change From Baseline in Percent Predicted Residual Volume (RV), Mean (Standard Deviation) (Cohort 3: 400 mg QD, Cycle 6, Day 1, n=7): −10.9 (37.5) percent predicted RV
Change From Baseline in Percent Predicted Residual Volume (RV), Mean (Standard Deviation) (Cohort 3: 400 mg QD, Cycle 7, Day 1, n=12): −7.5 (33.0) percent predicted RV
Change From Baseline in Percent Predicted Residual Volume (RV), Mean (Standard Deviation) (Cohort 3: 400 mg QD, Cycle 8, Day 1, n=6): 2.5 (39.7) percent predicted RV
Change From Baseline in Percent Predicted Residual Volume (RV), Mean (Standard Deviation) (Cohort 3: 400 mg QD, Cycle 9, Day 1, n=10): 0.1 (35.6) percent predicted RV
Change From Baseline in Percent Predicted Residual Volume (RV), Mean (Standard Deviation) (Cohort 3: 400 mg QD, Cycle 10, Day 1, n=5): 1.4 (38.2) percent predicted RV
Change From Baseline in Percent Predicted Residual Volume (RV), Mean (Standard Deviation) (Cohort 3: 400 mg QD, Cycle 11, Day 1, n=8): 5.4 (38.0) percent predicted RV
Change From Baseline in Percent Predicted Residual Volume (RV), Mean (Standard Deviation) (Cohort 3: 400 mg QD, Cycle 12, Day 1, n=6): −22.2 (49.9) percent predicted RV
Change From Baseline in Percent Predicted Residual Volume (RV), Mean (Standard Deviation) (Cohort 3: 400 mg QD, Cycle 13, Day 1, n=8): 0.3 (32.6) percent predicted RV
Change From Baseline in Percent Predicted Residual Volume (RV), Mean (Standard Deviation) (Cohort 3: 400 mg QD, Cycle 14, Day 1, n=6): −6.5 (36.3) percent predicted RV
Change From Baseline in Percent Predicted Residual Volume (RV), Mean (Standard Deviation) (Cohort 3: 400 mg QD, Cycle 15, Day 1, n=7): −16.7 (22.3) percent predicted RV
Change From Baseline in Percent Predicted Residual Volume (RV), Mean (Standard Deviation) (Cohort 3: 400 mg QD, Cycle 16, Day 1, n=4): −27.5 (31.9) percent predicted RV
Change From Baseline in Percent Predicted Residual Volume (RV), Mean (Standard Deviation) (Cohort 3: 400 mg QD, Cycle 17, Day 1, n=7): −39.1 (26.2) percent predicted RV
Change From Baseline in Percent Predicted Residual Volume (RV), Mean (Standard Deviation) (Cohort 3: 400 mg QD, Cycle 18, Day 1, n=3): −7.3 (33.7) percent predicted RV
Change From Baseline in Percent Predicted Residual Volume (RV), Mean (Standard Deviation) (Cohort 3: 400 mg QD, Cycle 19, Day 1, n=4): −23.5 (18.7) percent predicted RV
Change From Baseline in Percent Predicted Residual Volume (RV), Mean (Standard Deviation) (Cohort 3: 400 mg QD, Cycle 20, Day 1, n=3): −22.0 (44.3) percent predicted RV
Change From Baseline in Percent Predicted Residual Volume (RV), Mean (Standard Deviation) (Cohort 3: 400 mg QD, Cycle 21, Day 1, n=5): −30.2 (51.2) percent predicted RV
Change From Baseline in Percent Predicted Residual Volume (RV), Mean (Standard Deviation) (Cohort 3: 400 mg QD, Cycle 22, Day 1, n=2): −41.0 (46.7) percent predicted RV
Change From Baseline in Percent Predicted Residual Volume (RV), Mean (Standard Deviation) (Cohort 3: 400 mg QD, Cycle 23, Day 1, n=4): 1.5 (44.8) percent predicted RV
Change From Baseline in Percent Predicted Residual Volume (RV), Mean (Standard Deviation) (Cohort 3: 400 mg QD, Cycle 24, Day 1, n=1): −78.0 (—) percent predicted RV
Change From Baseline in Percent Predicted Residual Volume (RV), Mean (Standard Deviation) (Cohort 3: 400 mg QD, Cycle 25, Day 1, n=3): −23.3 (56.0) percent predicted RV
Change From Baseline in Percent Predicted Residual Volume (RV), Mean (Standard Deviation) (Cohort 3: 400 mg QD, Cycle 27, Day 1, n=2): −41.0 (28.3) percent predicted RV
Change From Baseline in Percent Predicted Residual Volume (RV), Mean (Standard Deviation) (Cohort 3: 400 mg QD, Cycle 29, Day 1, n=2): 17.5 (40.3) percent predicted RV
Change From Baseline in Percent Predicted Residual Volume (RV), Mean (Standard Deviation) (Cohort 3: 400 mg QD, Cycle 39, Day 1, n=1): 81.0 (—) percent predicted RV
Change From Baseline in Percent Predicted Residual Volume (RV), Mean (Standard Deviation) (Cohort 3: 400 mg QD, Cycle 43, Day 1, n=1): 75.0 (—) percent predicted RV
Change From Baseline in Percent Predicted Residual Volume (RV), Mean (Standard Deviation) (Cohort 3: 400 mg QD, Cycle 47, Day 1, n=1): 87.0 (—) percent predicted RV
Change From Baseline in Percent Predicted Residual Volume (RV), Mean (Standard Deviation) (Cohort 3: 400 mg QD, Cycle 49, Day 1, n=1): −5.0 (—) percent predicted RV
Change From Baseline in Percent Predicted Residual Volume (RV), Mean (Standard Deviation) (Cohort 3: 400 mg QD, EOT, n=8): −18.5 (32.6) percent predicted RV
